We go through 21 compounds from patent USRE47689E1, “Compounds for treating spinal muscular atrophy” (PTC Therapeutics, Inc., priority 2011, dated 2019).

Series [1] concerns SMN2 minigene (full length SMN2 minigene mRNA containing SMN2 exon 7). In words: SMN2 minigene mRNA splicing RT-qPCR assay in cultured cells. The settings on record: Homo sapiens, HEK293-H, read-out: EC1.5x for production of full length SMN2 mRNA. The class given is cell-based, human. A digest of the protocol:
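Full-length SMN2 minigene mRNA (exon 7 included), minigene-specific and not endogenous SMN, quantified by RT-qPCR multiplexed with GAPDH in stably transfected HEK293H cells after 24 h compound exposure at 37° C. Abundance from efficiency-corrected Ct, normalized to GAPDH and vehicle; EC1.5x reported as star bins.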
In general terms: In qPCR the cycle at which signal appears reflects the starting amount.

For a further series, the system named is Smn protein. Description: Smn protein assay in cultured cells (SMN HTRF). The class given is cell-based, human. The settings on record: 48 hours; for maximum fold (Fold) increase of Smn protein: SMA patient fibroblast cells, 7-point concentration data, fold increase relative to vehicle control (SMN HTRF); for EC1.5x (concentration giving 1.5-fold Smn protein increase): SMA Type 1 patient fibroblast cells (GM03813), 7-point concentration curve, SMN HTRF, concentration producing 1.5 times Smn protein vs DMSO vehicle control, read-out: EC1.5x for Smn protein expression. In short, it runs like this: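 Smn in SMA fibroblast lysates, measured by anti-SMN HTRF after 48 h compound exposure; EC1.5x from fold change over vehicle.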
(TR-FRET usually uses a lanthanide donor and a delayed reading to cut background.)

Setting [2] is: HEK293H cells stably transfected with SMN2-A minigene, 24 hours, 7-point concentration curve, 1.5-fold relative to vehicle-treated cells.

Molecules are shown by their SMILES. Like-named read-outs stand apart in the source and are kept apart here.

Broadly, the melting point is the temperature, or range, at which the solid turns liquid.

As for `O=c1oc2cc(N3CCN4CCC3CC4)ccc2cc1-c1cn2cccnc2n1` [Compound 440, 7-(1,4-diazabicyclo[3.2.2]non-4-yl)-3-(imidazo[1,2-a]pyrimidin-2-yl)-2H-chromen-2-one], the melting point is more than 300 °C. Also, in series [1] (24 h), the EC (1.5-fold) was in the range of 1 to 3 µM. Also, in the series on Smn protein, the “maximum fold (Fold) increase of Smn protein” value (“maximum fold (Fold) increase” for short) is listed as “* (maximum fold increase of ≤1.2)”.
With `CCN1CCN(c2ccc3cc(-c4cc5ccccn5n4)c(=O)oc3c2)CC1` [Compound 194, 7-(4-ethylpiperazin-1-yl)-3-(pyrazolo[1,5-a]pyridin-2-yl)-2H-chromen-2-one], the melting point lay in the range of 246 to 248 °C. The EC (1.5-fold) in series [1] (setting [2]) lay within 0.3 to 1 µM. The “maximum fold (Fold) increase” value with Smn protein is recorded as “* (maximum fold increase of ≤1.2)”.
Compound `Cc1cn2cc(-c3cc4ccc(N5CCC(NC(C)C)CC5)cc4oc3=O)nc2c(C)n1` [Compound 923, 3-(6,8-dimethylimidazo[1,2-a]pyrazin-2-yl)-7-[4-(propan-2-ylamino)piperidin-1-yl]-2H-chromen-2-one] gave a melting point of 216 to 218 °C. The EC (1.5-fold) in series [1] (setting [2]) is less than 0.1 µM. For the same compound, in the series on Smn protein, the EC1.5x (concentration giving 1.5-fold Smn protein increase) was 300 to 1000 nM; the “maximum fold (Fold) increase” value is “*** (fold increase between >1.35 and ≤1.5)”.
With `Cc1ccc2oc(-c3cc4ccc(N5CCN6CCC[C@H]6C5)cc4oc3=O)cc2n1` [Compound 722, 7-[(8aS)-hexahydropyrrolo[1,2-a]pyrazin-2(1H)-yl]-3-(5-methylfuro[3,2-b]pyridin-2-yl)-2H-chromen-2-one], the melting point lay within 228 to 230 °C. In series [1] (setting [2]), the EC (1.5-fold) is 1 to 3 µM. The “maximum fold (Fold) increase” value in the series on Smn protein was “* (maximum fold increase of ≤1.2)”.
For `C[C@H]1CN(c2ccc3cc(-c4cccc(C(F)(F)F)c4)c(=O)oc3c2)CCN1` [Compound 490, 7-[(3S)-3-methylpiperazin-1-yl]-3-[3-(trifluoromethyl)phenyl]-2H-chromen-2-one], in that order: 141 to 143 °C, 1 to 3 µM and “* (maximum fold increase of ≤1.2)”.
For `O=c1oc2cc(N3CCNCC3)ccc2cc1-c1cn2cc(Cl)sc2n1` [Compound 494, 3-(2-chloroimidazo[2,1-b][1,3]thiazol-6-yl)-7-(piperazin-1-yl)-2H-chromen-2-one], in that order: 240 to 242 °C, 0.1 to 0.3 µM and “* (maximum fold increase of ≤1.2)”.
For `Cc1cn2cc(-c3cc4c(F)cc(N5CCCNCC5)cc4oc3=O)nc2c(C)n1` [Compound 608, 7-(1,4-diazepan-1-yl)-3-(6,8-dimethylimidazo[1,2-a]pyrazin-2-yl)-5-fluoro-2H-chromen-2-one], the melting point was in the range of 248 to 250 °C. Further, the EC (1.5-fold) in series [1] (setting [2]) was less than 0.1 µM. In the series on Smn protein, the EC1.5x (concentration giving 1.5-fold Smn protein increase) is less than 300 nM and the “maximum fold (Fold) increase” value was “***** (fold increase >1.65)”.
The compound `O=c1oc2cc(N3CCNCC3)ccc2cc1Nc1ccccc1` [Compound 75, 3-(phenylamino)-7-(piperazin-1-yl)-2H-chromen-2-one] registered a melting point of 140 to 143 °C. The EC (1.5-fold) in series [1] (24 h) lay in the range of 3 to 30 µM. Also, the “maximum fold (Fold) increase” value in the series with Smn protein is “* (maximum fold increase of ≤1.2)”.
`C[C@@H]1CN(c2ccc3cc(-c4cn5cc(F)cc(F)c5n4)c(=O)oc3c2)C[C@H](C)N1` [Compound 523, 3-(6,8-difluoroimidazo[1,2-a]pyridin-2-yl)-7-[(3R,5S)-3,5-dimethylpiperazin-1-yl]-2H-chromen-2-one]: the melting point was in the range of 267 to 277 °C. The EC (1.5-fold) in series [1] (setting [2]) lay in the range of 0.3 to 1 µM. Moreover, the “maximum fold (Fold) increase” value in the series on Smn protein was “** (fold increase between >1.2 and ≤1.35)”.
On to `Cc1cn2cc(-c3cc4ccc(N5C[C@H](O)[C@@H](N(C)C)C5)cc4oc3=O)nc2c(C)n1` [Compound 738, 7-[(3S,4S)-3-(dimethylamino)-4-hydroxypyrrolidin-1-yl]-3-(6,8-dimethylimidazo[1,2-a]pyrazin-2-yl)-2H-chromen-2-one], for which the melting point was in the range of 270 to 272 °C. Moreover, the EC (1.5-fold) in series [1] (setting [2]) is less than 0.1 µM. In the series on Smn protein, the EC1.5x (concentration giving 1.5-fold Smn protein increase) is less than 300 nM and the “maximum fold (Fold) increase” value is “***** (fold increase >1.65)”.
Consider `Cc1cccc2nc(-c3cc4ccc(N5CCNCC5)cc4oc3=O)cn12` [Compound 132, 3-(5-methylimidazo[1,2-a]pyridin-2-yl)-7-(piperazin-1-yl)-2H-chromen-2-one], for which the melting point fell in the range of 239 to 249 °C. For the same compound, in series [1] (setting [2]), the EC (1.5-fold) lay within 1 to 3 µM. Moreover, the “maximum fold (Fold) increase” value in the series on Smn protein is recorded as “* (maximum fold increase of ≤1.2)”.
`Cc1cn2cc(-c3cc4ccc(N5C[C@@H]6CCCN[C@@H]6C5)cc4oc3=O)nc2c(C)n1` [Compound 794, 3-(6,8-dimethylimidazo[1,2-a]pyrazin-2-yl)-7-[(4aS,7aS)-octahydro-6H-pyrrolo[3,4-b]pyridin-6-yl]-2H-chromen-2-one] registered a melting point of 246 to 253 °C. Also, in series [1] (setting [2]), the EC (1.5-fold) is less than 0.1 µM. Further, in the series with Smn protein, the EC1.5x (concentration giving 1.5-fold Smn protein increase) was less than 300 nM; the “maximum fold (Fold) increase” value is “**** (fold increase between >1.5 and ≤1.65)”.
Compound `Cc1cn2cc(-c3cc4ccc(N5C[C@H]6CCCN[C@H]6C5)cc4oc3=O)nc2c(C)n1` [Compound 655, 3-(6,8-dimethylimidazo[1,2-a]pyrazin-2-yl)-7-[(4aR,7aR)-octahydro-6H-pyrrolo[3,4-b]pyridin-6-yl]-2H-chromen-2-one] registered a melting point of 259 to 269 °C. Moreover, in series [1] (setting [2]), the EC (1.5-fold) was less than 0.1 µM. Further, in the series with Smn protein, the EC1.5x (concentration giving 1.5-fold Smn protein increase) was less than 300 nM; the “maximum fold (Fold) increase” value is “**** (fold increase between >1.5 and ≤1.65)”.
`Cc1cccc(-c2cc3ccc(N4CCNCC4)cc3oc2=O)c1` [Compound 511, 3-(3-methylphenyl)-7-(piperazin-1-yl)-2H-chromen-2-one] yielded a melting point of 118 to 120 °C. Further, the EC (1.5-fold) in series [1] (24 h) lay in the range of 1 to 3 µM. In addition, in the series with Smn protein, the “maximum fold (Fold) increase” value is recorded as “* (maximum fold increase of ≤1.2)”.
Regarding `Cc1nc(-c2cc3ccc(N4CCCN(C)CC4)cc3oc2=O)cn1-c1ccccn1` [Compound 453, 7-(4-methyl-1,4-diazepan-1-yl)-3-[2-methyl-1-(pyridin-2-yl)-1H-imidazol-4-yl]-2H-chromen-2-one], the melting point is 192 to 196 °C. In series [1] (setting [2]), the EC (1.5-fold) is 3 to 30 µM. Moreover, the “maximum fold (Fold) increase” value in the series on Smn protein is given as “* (maximum fold increase of ≤1.2)”.
For `C[C@@H]1CN(c2ccc3cc(-c4nc5ccccc5s4)c(=O)oc3c2)C[C@H](C)N1` [Compound 24, 3-(1,3-benzothiazol-2-yl)-7-[(3R,5S)-3,5-dimethylpiperazin-1-yl]-2H-chromen-2-one], in that order: 248 to 252 °C, 1 to 3 µM and “* (maximum fold increase of ≤1.2)”.
In turn, `Cc1cccc2nc(-c3cc4ccc(N5CCN(C)CC5)cc4oc3=O)cn12` [Compound 135, 3-(5-methylimidazo[1,2-a]pyridin-2-yl)-7-(4-methylpiperazin-1-yl)-2H-chromen-2-one] showed a melting point of 263 to 272 °C. Moreover, in series [1] (setting [2]), the EC (1.5-fold) fell in the range of 0.3 to 1 µM. In addition, the “maximum fold (Fold) increase” value in the series with Smn protein was “** (fold increase between >1.2 and ≤1.35)”.
In turn, `CN1CCN(c2ccc3cc(-c4nc(-c5ccccc5)cs4)c(=O)oc3c2)CC1` [Compound 45, 7-(4-methylpiperazin-1-yl)-3-(4-phenyl-1,3-thiazol-2-yl)-2H-chromen-2-one] gave a melting point of 205 to 210 °C. Further, in series [1] (setting [2]), the EC (1.5-fold) lay in the range of 3 to 30 µM. Also, the “maximum fold (Fold) increase” value in the series on Smn protein is recorded as “* (maximum fold increase of ≤1.2)”.
For `Cc1cn2cc(-c3cc4ccc(N5C[C@@H]6C[C@H]5CN6)cc4oc3=O)nc2cn1` [Compound 623, 7-[(1S,4S)-2,5-diazabicyclo[2.2.1]hept-2-yl]-3-(6-methylimidazo[1,2-a]pyrazin-2-yl)-2H-chromen-2-one], the melting point is 225 to 227 °C. The EC (1.5-fold) in series [1] (setting [2]) is less than 0.1 µM. Also, in the series with Smn protein, the EC1.5x (concentration giving 1.5-fold Smn protein increase) was in the range of 300 to 1000 nM; the “maximum fold (Fold) increase” value was “*** (fold increase between >1.35 and ≤1.5)”.
On to `Cc1ccc2nc(-c3cc4c(F)cc(N5CCNCC5)cc4oc3=O)cn2c1` [Cpd 162, 5-fluoro-3-(6-methylimidazo[1,2-a]pyridin-2-yl)-7-(piperazin-1-yl)-2H-chromen-2-one], for which the melting point was in the range of 265 to 270 °C. Moreover, the EC (1.5-fold) in series [1] (setting [2]) is 0.1 to 0.3 µM. Moreover, in the series on Smn protein, the EC1.5x (concentration giving 1.5-fold Smn protein increase) lay within 300 to 1000 nM; the “maximum fold (Fold) increase” value is “*** (fold increase between >1.35 and ≤1.5)”.
In turn, `Cc1cn2cc(-c3cc4ccc(N5CCCNCC5)cc4oc3=O)ccc2n1` [Compound 663, 7-(1,4-diazepan-1-yl)-3-(2-methylimidazo[1,2-a]pyridin-6-yl)-2H-chromen-2-one] yielded a melting point of 222 to 225 °C. For the same compound, the EC (1.5-fold) in series [1] (setting [2]) is less than 0.1 µM. Moreover, the “maximum fold (Fold) increase” value in the series on Smn protein is “*** (fold increase between >1.35 and ≤1.5)”.
